In patent US9963462B2 (priority 2015, dated 2018):

How the values were obtained:
[1] = tested on: BH4 levels in SK-N-BE (2) cells; assay: SKN-N-BE (2) cellular assay, BH4 levels by LC-MS; assay type: cell-based; conditions: Homo sapiens, SKNBE2, read-out: SK-N-BE(2) IC50, SK-N-BE (2) cells, BH4 levels by LC-MS
[2] = molecular target: SNAP-hSPR (sepiapterin reductase, SPR) (Homo sapiens, UniProt P35270); assay: biochemical; assay type: binding; conditions: terbium labelled SNAP-hSPR / SSZ labelled SNAP-EGFP; read-out: hTR-FRET IC50
Sequence of SNAP-hSPR (sepiapterin reductase, SPR) (P35270 whole entry): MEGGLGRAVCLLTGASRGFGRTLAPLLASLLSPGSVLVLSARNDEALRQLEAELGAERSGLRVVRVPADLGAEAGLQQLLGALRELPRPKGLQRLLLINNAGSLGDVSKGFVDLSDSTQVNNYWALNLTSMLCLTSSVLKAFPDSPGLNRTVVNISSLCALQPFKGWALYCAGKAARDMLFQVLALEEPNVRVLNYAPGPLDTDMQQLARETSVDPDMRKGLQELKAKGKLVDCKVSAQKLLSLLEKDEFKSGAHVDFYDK

In the case of O=C(c1ccn(-c2nc3ccsc3c(=O)[nH]2)n1)N1CCc2ccccc2C1 [Q-0388], the IC50 [1] is reported as 36000 nM and the IC50 [2] is reported as 100 nM.
Cc1c(C(=O)N2CCC(C(F)(F)F)C2)cnn1-c1nc2c(c(=O)[nH]1)CCC2 (centres unmarked) [Q-0431] was tested, and the IC50 [1] was 500 nM and the IC50 [2] was 3 nM.
Cc1c(C(=O)N2CC3CC3(O)C2)cnn1-c1nc2c(c(=O)[nH]1)CCC2 (centres unmarked) [Q-0614] gave an IC50 [1] of 1600 nM and an IC50 [2] of 10 nM.
CCC(C#N)(CC)C1CCN(C(=O)c2cnn(-c3nc4c(c(=O)[nH]3)CCC4)c2C)CC1 [Q-0626] showed an IC50 [1] of 14 nM and an IC50 [2] of 1 nM.
Work on O=C(c1cnn(-c2nc3sccc3c(=O)[nH]2)c1)N1CCC(C2CC2)CC1 [Q-0751] yielded an IC50 [1] of 200 nM and an IC50 [2] of 3 nM.
CC1(C)CCN(C(=O)c2ccn(-c3nc4ccsc4c(=O)[nH]3)n2)C1 [Q-0389] was tested, and the IC50 [1] was 5600 nM and the IC50 [2] was 20 nM.
For Cc1c(C(=O)Nc2ccccc2N2CCOCC2)cnn1-c1nc2c(c(=O)[nH]1)CCC2 [Q-0532], the IC50 [1] was 44 nM and the IC50 [2] was 20 nM.
O=C(c1cnn(-c2nn3cccc3c(=O)[nH]2)c1)N1CCC(C(O)(C(F)(F)F)C(F)(F)F)CC1 [Q-0719] showed an IC50 [1] of 200 nM and an IC50 [2] of 2 nM.
For Cc1cc(=O)[nH]c(-n2nc(C(=O)N3CCc4ccccc4C3)cc2C)n1 [Q-0365, 6-methyl-2-[5-methyl-3-(1,2,3,4-tetrahydroisoquinoline-2-carbonyl)-1H-pyrazol-1-yl]-3,4-dihydropyrimidin-4-one], the IC50 [1] was 12000 nM and the IC50 [2] was 50 nM.
Compound O=C(c1cnn(-c2nc3sccc3c(=O)[nH]2)c1)N1CCC(CC(F)(F)F)CC1 [Q-0752] has an IC50 [1] of 500 nM and an IC50 [2] of 4 nM.
In the case of Cc1c(C(=O)N(C)Cc2nnc(-c3ccc(Cl)cc3)o2)cnn1-c1nc2c(c(=O)[nH]1)CCC2 [Q-0486], the IC50 [1] is reported as 100 nM and the IC50 [2] is reported as 6 nM.
For CCC1(C#N)CCN(C(=O)c2cn(-c3nn4cccc4c(=O)[nH]3)nn2)CC1 [Q-0775], the IC50 [1] was 1000 nM and the IC50 [2] was 2 nM.
Compound Cc1c(C(=O)N2CCC3(CC2)COC3)cnn1-c1nn2cccc2c(=O)[nH]1 [Q-0793] has an IC50 [1] of 1000 nM and an IC50 [2] of 3 nM.
Cc1c(C(=O)N2CC[C@@H]3CN(C(=O)OC(C)(C)C)[C@@H]3C2)cnn1-c1nn2cccc2c(=O)[nH]1 [Q-0788] was tested, and the IC50 [1] was 3600 nM and the IC50 [2] was 10 nM.
Compound Cc1cc(=O)[nH]c(-n2ncc(C(=O)N3CCc4ccccc4[C@H]3C)c2C)n1 (single isomer, unassigned) [Q-0340] has an IC50 [1] of 1100 nM and an IC50 [2] of 7 nM.
With O=C(c1cnn(-c2nn3cccc3c(=O)[nH]2)c1)N1CCN(c2ccc(F)cc2F)CC1 [Q-0734] the IC50 [1] was 300 nM and the IC50 [2] was 4 nM.
Work on Cc1c(C(=O)N2CCc3ccccc3C2)cnn1-c1nc(C(F)(F)F)cc(=O)[nH]1 [Q-0393] yielded an IC50 [1] of 800 nM and an IC50 [2] of 6 nM.
For Cc1c(C(=O)N2CC[C@@H](N(C)C(=O)OC(C)(C)C)C2)cnn1-c1nn2cccc2c(=O)[nH]1 [Q-0736], the IC50 [1] was 200 nM and the IC50 [2] was 2 nM.
Work on Cc1nc(-n2ncc(C(=O)N3CCc4ccccc4C3)c2C)[nH]c(=O)c1Cl [Q-0456] yielded an IC50 [1] of 500 nM and an IC50 [2] of 8 nM.
COC(=O)C12CC(C(=O)N3CCN(C(=O)c4cnn(-c5nc6c(c(=O)[nH]5)CCC6)c4C)CC3)(C1)C2 [Q-0612] gave an IC50 [1] of 2600 nM and an IC50 [2] of 10 nM.
Compound O=C(c1cnn(-c2nc3ccsc3c(=O)[nH]2)c1)N1CCC(c2c[nH]c3ccccc23)CC1 [Q-0527] has an IC50 [1] of 45 nM and an IC50 [2] of 30 nM.
Compound Cc1cc(=O)[nH]c(-n2ncc(C(=O)N3CCc4ccccc4C3)c2C(C)C)n1 [Q-0319] has an IC50 [1] of 2200 nM and an IC50 [2] of 10 nM.
In the case of Cc1c(C(=O)N2CCC(c3nc4ccccc4s3)CC2)cnn1-c1nn2cccc2c(=O)[nH]1 [Q-0608], the IC50 [1] is reported as 56 nM and the IC50 [2] is reported as 2 nM.
Compound Cc1c(C(=O)N2CCC(c3ccccc3)C2)cnn1-c1nc2c(c(=O)[nH]1)CCC2 (centres unmarked) [Q-0510] has an IC50 [1] of 100 nM and an IC50 [2] of 5 nM.
Cc1c(C(=O)N2CC(c3ccccc3)C2)cnn1-c1nc2c(c(=O)[nH]1)CCC2 [Q-0479] gave an IC50 [1] of 100 nM and an IC50 [2] of 6 nM.
Cc1c(C(=O)N2CCC(c3cn(C)c4ccccc34)CC2)cnn1-c1nc2c(c(=O)[nH]1)CCC2 [Q-0592] gave an IC50 [1] of 76 nM and an IC50 [2] of 20 nM.
With O=C(c1cnn(-c2nc3ccsc3c(=O)[nH]2)c1)N1CCC(c2nc3ccccc3s2)CC1 [Q-0528] the IC50 [1] was 800 nM and the IC50 [2] was 70 nM.
For CCC(C#N)C1CCN(C(=O)c2cnn(-c3nn4cccc4c(=O)[nH]3)c2C)CC1 (centres unmarked) [Q-0826], the IC50 [1] was 100 nM and the IC50 [2] was 1 nM.
Cc1c(C(=O)N2CCCc3ccccc32)cnn1-c1nc2ccsc2c(=O)[nH]1 [Q-0395] showed an IC50 [1] of 500 nM and an IC50 [2] of 20 nM.
Work on Cc1ccccc1N1CCN(C(=O)c2cnn(-c3nc4c(c(=O)[nH]3)CCC4)c2C)CC1 [Q-0485] yielded an IC50 [1] of 62 nM and an IC50 [2] of 9 nM.
In the case of Cc1nc(-n2ncc(C(=O)N3CCC(C(F)(F)F)CC3)c2C)[nH]c(=O)c1Cl [Q-0421], the IC50 [1] is reported as 700 nM and the IC50 [2] is reported as 3 nM.
Compound Cc1c(C(=O)N(CCC(F)(F)F)CC(F)(F)F)cnn1-c1nc2c(c(=O)[nH]1)CCC2 [Q-0435] has an IC50 [1] of 1200 nM and an IC50 [2] of 20 nM.
Cc1cc(=O)[nH]c(-n2ncc(C(=O)N3CCC(C(F)(F)F)CC3)c2C(C)C)n1 [Q-0444] was tested, and the IC50 [1] was 2700 nM and the IC50 [2] was 10 nM.
Work on Cc1cc(=O)[nH]c(-n2ncc(C(=O)N(C)C)c2C)n1 [Q-0317] yielded an IC50 [1] of 20000 nM and an IC50 [2] of 60 nM.
Work on Cc1c(C(=O)N2CCN(c3ccccc3)CC2)cnn1-c1nc2c(c(=O)[nH]1)CCC2 [Q-0545] yielded an IC50 [1] of 41 nM and an IC50 [2] of 2 nM.
Compound Cc1c(C(=O)N2CCc3ccccc3C2)cnn1-c1nc2sccc2c(=O)[nH]1 [Q-0382] has an IC50 [1] of 100 nM and an IC50 [2] of 3 nM.
For CCOC(=O)c1cn(-c2nn3cccc3c(=O)[nH]2)nn1 [Q-0839], the IC50 [1] was 1500 nM and the IC50 [2] was 8 nM.
Cc1c(C(=O)N2CCCCC2)cnn1-c1nc2c(c(=O)[nH]1)CCC2 [Q-0633] gave an IC50 [1] of 400 nM and an IC50 [2] of 5 nM.
CC(C)c1c(C(=O)N2CCC(C(F)(F)F)CC2)cnn1-c1nc2c(c(=O)[nH]1)CCC2 [Q-0445] was tested, and the IC50 [1] was 900 nM and the IC50 [2] was 10 nM.
With Cc1c(C(=O)N2CCC3(CCCCN3C(=O)OC(C)(C)C)C2)cnn1-c1nc2c(c(=O)[nH]1)CCC2 (centres unmarked) [Q-0552] the IC50 [1] was 38 nM and the IC50 [2] was 7 nM.
Compound Cc1c(C(=O)N2CCC(c3ccccc3)CC2)cnn1-c1nc2ccsc2c(=O)[nH]1 [Q-0495] has an IC50 [1] of 51 nM and an IC50 [2] of 5 nM.
CCC1(C#N)CCN(C(=O)c2cnn(-c3nc4sccc4c(=O)[nH]3)c2C)CC1 [Q-0563] showed an IC50 [1] of 300 nM and an IC50 [2] of 5 nM.
Cc1c(C(=O)N2CCC(C(C)(C)C)CC2)cnn1-c1nc2c(c(=O)[nH]1)CCC2 [Q-0580] was tested, and the IC50 [1] was 22 nM and the IC50 [2] was 3 nM.
CCC1(C#N)CCN(C(=O)c2cnn(-c3nn4c(F)ccc4c(=O)[nH]3)c2C)CC1 [Q-0623] showed an IC50 [1] of 78 nM and an IC50 [2] of 1 nM.
In the case of Cc1c(C(=O)N2CCN(c3ccc(C#N)cc3)CC2)cnn1-c1nn2cccc2c(=O)[nH]1 [Q-0829], the IC50 [1] is reported as 80 nM and the IC50 [2] is reported as 1 nM.
Cc1c(C(=O)N2CCC(C#N)(c3ccccc3)CC2)cnn1-c1nc2c(c(=O)[nH]1)CCC2 [Q-0473] showed an IC50 [1] of 92 nM and an IC50 [2] of 6 nM.
In the case of Cc1c(C(=O)N2CCC[C@@H](C(F)(F)F)C2)cnn1-c1nc2c(c(=O)[nH]1)CCC2 (single isomer, unassigned) [Q-0474], the IC50 [1] is reported as 600 nM and the IC50 [2] is reported as 7 nM.
COC(=O)c1ccc(-c2nc3c(c(=O)[nH]2)CCC3)nc1 [Q-0471] was tested, and the IC50 [1] was 16000 nM and the IC50 [2] was 80 nM.
Cc1c(C(=O)N2CCC(C(C#N)C3CC3)CC2)cnn1-c1nn2cccc2c(=O)[nH]1 (centres unmarked) [Q-0855] was tested, and the IC50 [1] was 100 nM and the IC50 [2] was 1 nM.
